From patent US6693123B2 (University of Pittsburgh, priority 1995, dated 2004)
Counter-ions that a name gives are not always drawn.

Target: T1, Rat brain protein farnesyltransferase (Rattus norvegicus, UniProt Q02293+Q04631)
T1 construct: The enzyme is purified according to Reiss, Y., et al., Cell, 62: 81-88 (1990), utilizing steps one through three; from tissue; host or cells: rat brain
Test: In vitro inhibition of protein farnesyltransferase, Amersham scintillation proximity assay with biotin-K Ras B fragment
Assay type: biochemical
Details: Inhibition of farnesyltransferase; compound at 1 × 10^−5 M (Table 1)
Source text: The ability of the compounds of the invention to inhibit protein farnesyltransferase or protein geranylgeranyltransferase can be measured according to the method of Moores, et al., J. Biol. Chem. 266: 14603 (1991) or the method of Vogt, et al., J. Biol. Chem. 270:660-664 (1995). In addition, procedures for determination of the inhibition of farnesylation of the oncogene protein Ras are described by Goldstein, et al., J. Biol. Chem., 266:15575-15578 (1991) and by Singh in U.S. Pat. No. 5,245,061.
In addition, in vitro inhibition of protein farnesyltransferase may be measured by the following procedure. Rat brain protein farnesyltransferase activity is measured using an Amersham Life Science commercial scintillation proximity assay kit and substituting a biotin-K Ras B fragment (biotin-[…]Ue-Met-CO2H), 0.1 mM final concentration, for the biotin-lamin substrate provided by Amersham. The enzyme is purified according to Reiss, Y., et al., Cell, 62: 81-88 (1990), utilizing steps one through three. […]
The % inhibition of protein farnesyltransferase was determined for representative compounds of the invention.

In the case of `CSCC[C@H](NC(=O)c1ccc(NC(=O)c2cccnc2)cc1-c1ccccc1)C(=O)O` [Example 200, [4-(3-Pyridylcarbonylamino)-2-phenylbenzoyl]methionine Hydrochloride], the inhibition at 10 µM is reported as 93%.

Same assay, conditions: Inhibition of farnesyltransferase; compound at 1 × 10^−6 M (Table 2)

Compared with `CSCC[C@H](NC(=O)c1ccc(COc2cccnc2)cc1-c1ccc(C)cc1)C(=O)O` [Example 206], `COc1cccc(-c2cc(COc3cccnc3)ccc2C(=O)N[C@@H](CCSC)C(=O)O)c1` [Example 208] is higher in “% inhibition at 1 × 10^−6 M” value: 67% for the first, 98% for the second.

Same assay, conditions: Inhibition of farnesyltransferase; compound at 1 × 10^−6 M (Table 2); read-out: % inhibition at 1 × 10^−6 M

Compared with `CS(=O)(=O)CC[C@H](NC(=O)c1ccc(C(O)C(O)c2cccnc2)cc1-c1ccccc1)C(=O)O` (mixture of isomers) [Example 221, N-{4-[2-(Pyrid-3-yl)-1,2-dihydroxyethyl]-2-phenylbenzoyl]-2-amino-4-(methylsulfonyl)butanoic Acid], `CS(=O)(=O)CC[C@H](NC(=O)c1ccc(NC(=O)c2cccnc2)cc1-c1ccccc1)C(=O)O` [Example 203, [4-(3-Pyridylcarbonylamino)-2-phenylbenzoyl]-2-amino-4-(methylsulfonyl)butanoic Acid] is higher in inhibition at 1 µM: 55% for the first, 76% for the second.

Compared with `CSCC[C@@H](NC(=O)c1ccc(CNc2cccnc2)cc1-c1ccccc1)C(=O)O` (stereo in doubt) [Example 189, [4-(3-Pyridylaminomethyl)-2-phenylbenzoyl]methionine], `CSCC[C@H](NC(=O)c1ccc(NCc2cccnc2)cc1-c1ccccc1)C(=O)O` [Example 192, [4-(3-Pyridylmethylamino)-2-phenylbenzoyl]methionine] is higher in inhibition at 1 µM: 88% for the first, 95% for the second.

Going from `COC(=O)[C@H](CCS(C)(=O)=O)NC(=O)c1ccc(CNc2cccnc2)cc1-c1ccccc1` (stereo in doubt) [Example 238, N-[4-(3-Pyridylaminomethyl)-2-phenylbenzoyl]-2-amino-4-(methylsulfonyl)butanoic Acid Methyl Ester] to `COC(=O)[C@H](CCSC)NC(=O)c1ccc(NCc2cccnc2)cc1-c1ccccc1` [Example 201, [4-(3-Pyridylmethylamino)-2-phenylbenzoyl]methionine Methyl Ester], the inhibition at 1 µM rises from 22% to 63%.

Compared with `COC(=O)[C@H](CCSC)N(C)C(=O)c1ccc(CNc2cccnc2)cc1-c1ccccc1` [Example 158, [4-(3-Pyridylaminomethylene)-2-phenylbenzoyl]-N-methylmetionine Methyl Ester], `CSCC[C@@H](C(=O)O)N(C)C(=O)c1ccc(CNc2cccnc2)cc1-c1ccccc1` [Example 159, [4-(3-Pyridylaminomethyl)-2-phenylbenzoyl]-N-methylmethionine] is higher in inhibition at 1 µM: 2% for the first, 84% for the second.

Going from `CSCC[C@H](NC(=O)c1ccc(CNc2ccccn2)cc1-c1ccccc1)C(=O)O` [Example 160, [4-(2-Pyridylaminomethyl)-2-phenylbenzoyl]methionine] to `CSCC[C@H](NC(=O)c1ccc(CNc2ccncc2)cc1-c1ccccc1)C(=O)O` [Example 161, [4-(4-Pyridylaminomethyl)-2-phenylbenzoyl]methionine], the inhibition at 1 µM rises from 30% to 54%.

First: CSCC[C@H](NC(=O)c1ccc(NCc2c[nH]cn2)cc1-c1ccccc1)C(=O)O [Example 167, [4-(1H-Imidazol-4-ylmethyl)amino-2-phenylbenzoyl]methionine Hydrochloride]
Second: CSCC[C@H](NC(=O)c1ccc(NC(=O)c2c[nH]cn2)cc1-c1ccccc1)C(=O)O [Example 168, [4-(1H-Imidazol-4-ylcarbonyl)amino-2-phenylbenzoyl]methionine Hydrochloride]
The inhibition at 1 µM of the first is higher: 98% for the first, 92% for the second.

Going from `CSCC[C@H](NC(=O)c1ccc(NC(=O)c2nccn2C)cc1-c1ccccc1)C(=O)O` [Example 186, [4-(1H-1-Methylimidazol-2-ylcarboxyamino)-2-phenylbenzoyl]methionine] to `CSCC[C@H](NC(=O)c1ccc(C=Cc2cccnc2)cc1-c1ccccc1)C(=O)O` [Example 211, {4-[2-(Pyrid-3-yl)ethenyl]-2-phenylbenzoyl}methionine Sodium Salt], the inhibition at 1 µM rises from 86% to 98%.

Going from `C[C@H](NC(=O)c1ccc(COc2cccnc2)cc1-c1ccccc1)C(=O)O` [Example 187, [4-(3-Pyridyloxymethyl)-2-phenylbenzoyl]alanine] to `CSCC[C@H](NC(=O)c1ccc(COc2cccnc2)cc1-c1ccccc1C)C(=O)O` [Example 204, [4-(3-Pyridyloxymethyl)-2-(2-methylphenyl)benzoyl]methionine], the inhibition at 1 µM rises from 68% to 98%.

First: O=C(N[C@H]1CCOC1=O)c1ccc(NCc2cccnc2)cc1-c1ccccc1 [Example 190, [4-(3-Pyridylmethylamino)-2-phenylbenzoyl]homoserine Lactone]
Second: CSCC[C@H](NC(=O)c1ccc(NCc2cccnc2)cc1-c1ccccc1)C(N)=O [Example 196, [4-(3-Pyridylmethylamino)-2-phenylbenzoyl]methionineamide]
The inhibition at 1 µM of the first is lower: 4% for the first, 43% for the second.

Going from `CSCC[C@H](NC(=O)c1ccc(NCc2cccnc2)cc1-c1ccccc1)C(=O)OCCC(C)C` [Example 193, [4-(3-Pyridylmethylamino)-2-phenylbenzoyl]methionine Isoamyl Ester] to `CNC(=O)[C@H](CCSC)NC(=O)c1ccc(NCc2cccnc2)cc1-c1ccccc1` [Example 197, [4-(3-Pyridylmethylamino)-2-phenylbenzoyl]methioninemethylamide], the inhibition at 1 µM falls from 4% to 1%.

Compared with `CSCC[C@H](NC(=O)c1ccc(COc2cccnc2)cc1-c1cccc(C)c1)C(=O)O` [Example 205, [4-(3-Pyridyloxymethyl)-2-(3-methylphenyl)benzoyl]methionine], `COc1ccc(-c2cc(COc3cccnc3)ccc2C(=O)N[C@@H](CCSC)C(=O)O)cc1` [Example 209, [4-(3-Pyridyloxymethyl)-2-(4-methoxyphenyl)benzoyl]methionine] is lower in inhibition at 1 µM: 98% for the first, 74% for the second.

`COc1ccccc1-c1cc(COc2cccnc2)ccc1C(=O)N[C@@H](CCSC)C(=O)O` [Example 207, [4-(3-Pyridyloxymethyl)-2-(2-methoxyphenyl)benzoyl]methionine] and `CSCC[C@H](NC(=O)c1ccc(CCc2cccnc2)cc1-c1ccccc1)C(=O)O` [Example 213, {4-[2-(Pyrid-3-yl)ethyl]-2-phenylbenzoyl}methionine Sodium Salt] are the same in inhibition at 1 µM: 98% for the first, 98% for the second.

Going from `COC(=O)[C@H](CCSC)NC(=O)c1ccc(/C=C/c2cccnc2)cc1-c1ccccc1` [Example 210, {4-[2-(Pyrid-3-yl)ethenyl]-2-phenylbenzoyl}methionine Methyl Ester] to `COC(=O)[C@H](CCSC)NC(=O)c1ccc(CCc2cccnc2)cc1-c1ccccc1` [Example 212, {4-[2-(Pyrid-3-yl)ethyl]-2-phenylbenzoyl}methionine Methyl Ester], the inhibition at 1 µM rises from 5% to 12%.

Same assay, conditions: Inhibition of farnesyltransferase; compound at 1 × 10^−8 M (Table 4); read-out: % inhibition at 1 × 10^−8 M

For `CSCC[C@@H](NC(=O)c1ccc(CNc2cccnc2)cc1-c1ccccc1C)C(=O)O` (stereo in doubt) [Example 400, [4-(3-Pyridylaminomethyl)-2-(2-methylphenyl)benzoyl]methionine], the inhibition at 0.01 µM was 98%.

Same assay, conditions: read-out: % inhibition at 1 × 10^−6 M

Compared with `O=C(N[C@@H](CCO)C(=O)O)c1ccc(NCc2cccnc2)cc1-c1ccccc1` [Example 191, Lithium 4-(3-Pyridylmethylamino)-2-phenylbenzoyl-L-homoserinate], `CSCC[C@H](NC(=O)c1ccc(/C=C/n2ccnc2)cc1-c1ccccc1)C(=O)O` [Example 217, {4-[2-(1-H-Imidazole-1-yl)ethenyl]-2-phenylbenzoyl}methionine Sodium Salt] is higher in inhibition at 1 µM: 28% for the first, 99% for the second.

First: CSCC[C@H](NC(=O)c1ccc(/C=C/c2cnccc2N(C)C)cc1-c1ccccc1)C(=O)O [Example 214, {4-[2-(4-Dimethylaminopyrid-3-yl)ethenyl]-2-phenylbenzoyl}methionine Sodium Salt]
Second: CSCC[C@H](NC(=O)c1ccc(/C=C/c2cncc(Br)c2)cc1-c1ccccc1)C(=O)O [Example 215, {4-[2-(5-Bromopyrid-3-yl)ethenyl]-2-phenylbenzoyl}methionine Sodium Salt]
The inhibition at 1 µM of the first is higher: 97% for the first, 82% for the second.

Same assay, conditions: read-out: % inhibition at 1 × 10^−7 M

First: CSCC[C@H](NC(=O)c1ccc(/C=C/c2cnc3ccccc3c2)cc1-c1ccccc1C)C(=O)O (stereo in doubt) [Example 487, N-[4-(2-Quinolin-3-ylethen-1-yl)-2-(2-methylphenyl)benzoyl]methionine Lithium Salt]
Second: CSCC[C@H](NC(=O)c1ccc(/C=C/c2cncc3ccccc23)cc1-c1ccccc1C)C(=O)O (stereo in doubt) [Example 491, N-[4-(2-Isoquinolin-4-ylethen-1-yl)-2-(2-methylphenyl)benzoyl]methionine Lithium Salt]
The inhibition at 0.1 µM of the first is lower: 81% for the first, 94% for the second.

Compound `Cc1ccccc1-c1cc(CCc2cnc3ccccc3c2)ccc1C(=O)N[C@@H](CC[S+](C)[O-])C(=O)O` (stereo in doubt) [Example 490, N-[4-(2-Quinolin-3-ylethyl)-2-(2-methylphenyl)benzoyl]-2-amino-4-methylsulfinylbutanoic Acid Lithium Salt] has an inhibition at 0.1 µM of 70%.
